Test results: patent US7517874B2 (priority 2007, dated 2009)
Like-named read-outs stand apart in the source and are kept apart here.

Key:
[1] = biological target: human CB1 receptor (hCB1) (Homo sapiens, UniProt P21554); assay: cell-based; assay type: cell-based; conditions: for +/− HCB1: agonist or inverse agonist at hCB1
Outline: (§1)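 Agonism or inverse agonism was assessed as change in intracellular cAMP in CHO-K1 cells expressing human CB1 or rat CB2 (genomic DNA, pcDNA3.1).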

[2] = biological target: T1, rat CB2 receptor (rCB2) (Rattus norvegicus, UniProt Q9QZN9); assay: cell-based; assay type: cell-based; conditions: for +/− RCB2: agonist or inverse agonist at rCB2
T1 sequence (Q9QZN9 1-360): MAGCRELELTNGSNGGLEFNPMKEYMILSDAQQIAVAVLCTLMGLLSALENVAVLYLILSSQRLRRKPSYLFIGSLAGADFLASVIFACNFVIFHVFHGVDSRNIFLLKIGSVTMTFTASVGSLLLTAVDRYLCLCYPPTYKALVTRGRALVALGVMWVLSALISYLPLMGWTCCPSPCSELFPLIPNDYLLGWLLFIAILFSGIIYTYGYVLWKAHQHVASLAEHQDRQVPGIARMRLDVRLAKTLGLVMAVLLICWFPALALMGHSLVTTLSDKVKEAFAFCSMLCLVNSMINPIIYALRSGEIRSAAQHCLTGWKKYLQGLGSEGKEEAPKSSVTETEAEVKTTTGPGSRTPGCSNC
Outline: as §1

Sequence of human CB1 receptor (hCB1) (P21554 whole entry): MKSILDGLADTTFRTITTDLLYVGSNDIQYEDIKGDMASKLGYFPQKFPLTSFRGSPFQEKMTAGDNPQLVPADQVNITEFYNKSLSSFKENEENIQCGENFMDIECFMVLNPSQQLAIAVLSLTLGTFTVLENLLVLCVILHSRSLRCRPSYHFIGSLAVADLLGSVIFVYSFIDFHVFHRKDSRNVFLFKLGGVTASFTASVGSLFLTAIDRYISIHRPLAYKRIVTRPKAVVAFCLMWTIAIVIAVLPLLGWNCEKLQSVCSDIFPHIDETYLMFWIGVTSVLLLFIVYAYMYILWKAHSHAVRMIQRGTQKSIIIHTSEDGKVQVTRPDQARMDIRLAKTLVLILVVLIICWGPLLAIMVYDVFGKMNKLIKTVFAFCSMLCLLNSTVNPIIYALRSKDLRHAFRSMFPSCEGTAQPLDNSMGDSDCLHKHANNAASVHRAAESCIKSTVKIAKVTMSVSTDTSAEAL

Structure (SMILES) | EC50 [1] [nM] | +/− RCB2 [2] | other results
CNC(=O)[C@@H](NC(=O)c1nc(C2CCC(F)(F)CC2)n2c1CN(C)CCC2)C(C)(C)C [Compound 528, (S)-3-(4,4-difluorocyclohexyl)-N-(3,3-dimethyl-1-(methylamino)-1-oxobutan-2-yl)-8-methyl-6,7,8,9-tetrahydro-5H-imidazo[1,5-a][1,4]diazepine-1-carboxamide] | > 10000 | + | 
CN1CCCn2c(-c3cc(F)c(F)cc3F)nc(C(=O)N[C@H](C(N)=O)C(C)(C)C)c2C1 [Compound 579, (S)-N-(1-amino-3,3-dimethyl-1-oxobutan-2-yl)-8-methyl-3-(2,4,5-trifluorophenyl)-6,7,8,9-tetrahydro-5H-imidazo[1,5-a][1,4]diazepine-1-carboxamide] |  | + | +/− HCB1 [1]: +
CN1CCCn2c(-c3ccccc3)nc(C(=O)N[C@H](C(N)=O)C(C)(C)C)c2C1 [Compound 582] | > 10000 | + | 
CNC(=O)[C@H](CC(C)C)NC(=O)c1nc(-c2cc(Cl)ccc2F)n2c1CN(C)CCC2 [Compound 536, (S)-3-(5-chloro-2-fluorophenyl)-8-methyl-N-(4-methyl-1-(methylamino)-1-oxopentan-2-yl)-6,7,8,9-tetrahydro-5H-imidazo[1,5-a][1,4]diazepine-1-carboxamide] | > 10000 | + | 
CNC(=O)[C@@H](NC(=O)c1nc(-c2ccccc2)n2c1CN(c1cccc(Cl)n1)CC2)C(C)(C)C [Compound 299, (S)-7-(6-chloropyridin-2-yl)-N-(3,3-dimethyl-1-(methylamino)-1-oxobutan-2-yl)-3-phenyl-5,6,7,8-tetrahydroimidazo[1,5-a]pyrazine-1-carboxamide] |  | − | +/− HCB1 [1]: +
CN1CCCn2c(-c3ccc(Cl)c(F)c3)nc(C(=O)N[C@@H](CC(C)(C)C)C(N)=O)c2C1 [Compound 588, (S)-N-(1-amino-4,4-dimethyl-1-oxopentan-2-yl)-3-(4-chloro-3-fluorophenyl)-8-methyl-6,7,8,9-tetrahydro-5H-imidazo[1,5-a][1,4]diazepine-1-carboxamide] |  | + | +/− HCB1 [1]: +
CNC(=O)C(NC(=O)c1nc(-c2ccccc2)n2c1CN(C)CCC2)C(C)(C)F (stereo not shown) [Compound 605, N-(3-fluoro-3-methyl-1-(methylamino)-1-oxobutan-2-yl)-8-methyl-3-phenyl-6,7,8,9-tetrahydro-5H-imidazo[1,5-a][1,4]diazepine-1-carboxamide] | > 10000 | + | 
CNC(=O)[C@@H](NC(=O)c1nc(-c2ccccc2)n2c1C[N+](C)(C)CCC2)C(C)(C)C [Compound 481, (S)-1-(3,3-dimethyl-1-(methylamino)-1-oxobutan-2-ylcarbamoyl)-8,8-dimethyl-3-phenyl-6,7,8,9-tetrahydro-5H-imidazo[1,5-a][1,4]diazepin-8-ium] | > 10000 |  | EC50 [2]: > 10000 nM
COC(=O)[C@@H](NC(=O)c1nc(-c2ccc(C)cc2F)n2c1CN(CC1CC1)CCC2)C(C)(C)C [Compound 470, (S)-methyl 2-(8-(cyclopropylmethyl)-3-(2-fluoro-4-methylphenyl)-6,7,8,9-tetrahydro-5H-imidazo[1,5-a][1,4]diazepine-1-carboxamido)-3,3-dimethylbutanoate] | > 10000 | − | 
CNC(=O)[C@@H](NC(=O)c1nc(-c2cscc2C)n2c1CN(C)CCC2)C(C)(C)C [Compound 352, (S)-N-(3,3-dimethyl-1-(methylamino)-1-oxobutan-2-yl)-8-methyl-3-(4-methylthiophen-3-yl)-6,7,8,9-tetrahydro-5H-imidazo[1,5-a][1,4]diazepine-1-carboxamide] | > 10000 | + | 
CNC(=O)[C@@H](NC(=O)c1nc(-c2ccccc2OC)n2c1CN(C)CCC2)C(C)(C)C [Compound 325, (S)-N-(3,3-dimethyl-1-(methylamino)-1-oxobutan-2-yl)-3-(2-methoxyphenyl)-8-methyl-6,7,8,9-tetrahydro-5H-imidazo[1,5-a][1,4]diazepine-1-carboxamide] | > 10000 | + | 
CN1CCn2c(-c3ccc(Cl)cc3F)nc(C(=O)Nc3ccc(S(N)(=O)=O)cc3)c2C1 [Compound 208, 3-(4-chloro-2-fluorophenyl)-7-methyl-N-(4-sulfamoylphenyl)-5,6,7,8-tetrahydroimidazo[1,5-a]pyrazine-1-carboxamide] | > 10000 | − | 
CNC(=O)[C@@H](NC(=O)c1nc(-c2cc(Cl)c(F)cc2F)n2c1CN(C)CCC2)C(C)(C)C [Compound 370, (S)-3-(5-chloro-2,4-difluorophenyl)-N-(3,3-dimethyl-1-(methylamino)-1-oxobutan-2-yl)-8-methyl-6,7,8,9-tetrahydro-5H-imidazo[1,5-a][1,4]diazepine-1-carboxamide] | > 10000 | + | 
CC(C)CN1CCn2c(-c3ccccc3)nc(C(=O)N[C@H](C(=O)N(C)C)C(C)(C)C)c2C1 [Compound 80, (S)-N-(1-(dimethylamino)-3,3-dimethyl-1-oxobutan-2-yl)-7-isobutyl-3-phenyl-5,6,7,8-tetrahydroimidazo[1,5-a]pyrazine-1-carboxamide] | > 10000 | − | 
CNC(=O)[C@@H](NC(=O)c1nc(-c2cc(F)c(F)cc2F)n2c1CN(C)CCC2)C(C)(C)C [Compound 371, (S)-N-(3,3-dimethyl-1-(methylamino)-1-oxobutan-2-yl)-8-methyl-3-(2,4,5-trifluorophenyl)-6,7,8,9-tetrahydro-5H-imidazo[1,5-a][1,4]diazepine-1-carboxamide] |  | + | +/− HCB1 [1]: +
CNC(=O)[C@@H](NC(=O)c1nc(-c2ccc(C)cc2F)n2c1CNCCC2)C(C)(C)C [Compound 316, (S)-N-(3,3-dimethyl-1-(methylamino)-1-oxobutan-2-yl)-3-(2-fluoro-4-methylphenyl)-6,7,8,9-tetrahydro-5H-imidazo[1,5-a][1,4]diazepine-1-carboxamide] | > 10000 | − | 
CCCC/C=C/c1nc(C(=O)N[C@H](C(=O)NC)C(C)(C)C)c2n1CCCN(C)C2 [Compound 400, (S,E)-N-(3,3-dimethyl-1-(methylamino)-1-oxobutan-2-yl)-3-(hex-1-enyl)-8-methyl-6,7,8,9-tetrahydro-5H-imidazo[1,5-a][1,4]diazepine-1-carboxamide] | > 10000 | + | 
CNC(=O)[C@@H](NC(=O)c1nc(-c2ccc(F)c(C(N)=O)c2)n2c1CN(C)CCC2)C(C)(C)C [Compound 429, (S)-3-(3-carbamoyl-4-fluorophenyl)-N-(3,3-dimethyl-1-(methylamino)-1-oxobutan-2-yl)-8-methyl-6,7,8,9-tetrahydro-5H-imidazo[1,5-a][1,4]diazepine-1-carboxamide] | > 10000 | + | 
CNC(=O)[C@@H](NC(=O)c1nc(-c2ccccc2)n2c1CN(S(=O)(=O)C1CC1)CC2)C(C)(C)C [Compound 100, (S)-7-(cyclopropylsulfonyl)-N-(3,3-dimethyl-1-(methylamino)-1-oxobutan-2-yl)-3-phenyl-5,6,7,8-tetrahydroimidazo[1,5-a]pyrazine-1-carboxamide] | > 10000 | − | 
CC(C)(C)[C@@H](CO)NC(=O)c1nc(-c2ccccc2)n2c1CN(S(=O)(=O)c1ccccc1)CC2 [Compound 102, (S)-N-(1-hydroxy-3,3-dimethylbutan-2-yl)-3-phenyl-7-(phenylsulfonyl)-5,6,7,8-tetrahydroimidazo[1,5-a]pyrazine-1-carboxamide] | > 10000 | − | 
CNC(=O)c1ccc(NC(=O)c2nc(-c3ccc(Cl)cc3F)n3c2CN(C)CC3)cc1 [Compound 218] |  |  | EC50 ([1]; groups >100 nM-10 μM and >10 μM, cAMP, CHO-K1 hCB1, read-out: EC50 HCB1): > 10000 nM; EC50 ([2]; groups >100 nM-10 μM and >10 μM, cAMP, CHO-K1 rCB2, read-out: EC50 RCB2): > 10000 nM
CN1CCCn2c(-c3ccccc3)nc(C(=O)N[C@H](C(=O)NCC3CCOCC3)C(C)(C)C)c2C1 [Compound 479, (S)-N-(3,3-dimethyl-1-oxo-1-((tetrahydro-2H-pyran-4-yl)methylamino)butan-2-yl)-8-methyl-3-phenyl-6,7,8,9-tetrahydro-5H-imidazo[1,5-a][1,4]diazepine-1-carboxamide] | > 10000 | + | 
CNC(=O)[C@@H](NC(=O)c1nc(-c2cccc(-c3nnc(C)o3)c2)n2c1CN(C)CCC2)C(C)(C)C [Compound 407, (S)-N-(3,3-dimethyl-1-(methylamino)-1-oxobutan-2-yl)-8-methyl-3-(3-(5-methyl-1,3,4-oxadiazol-2-yl)phenyl)-6,7,8,9-tetrahydro-5H-imidazo[1,5-a][1,4]diazepine-1-carboxamide] | > 10000 |  | EC50 [2]: > 10000 nM
